In DBAASP one finds MIC data, which are given here for six compounds.

Structures are written as SMILES. Values after ≈ are worked out from the molar mass of the structure shown. Values joined by “and” are separate entries in the source; they are usually repeats but may differ in a detail not shown here. Identical values can stand only once.

One may read the MIC as the smallest concentration in the dilution series that meets the test's criterion for growth inhibition.

Among the test systems are Micrococcus luteus A270; Escherichia coli; Listeria innocua; Salmonella typhimurium; Escherichia coli B; Pseudomonas aeruginosa; Staphylococcus aureus; Bacillus subtilis 168; Bacillus subtilis C971; Escherichia coli DC2; Escherichia coli UB1005.
What all share (assay): ≥ marks a high value that may be exact or a test limit, other limits are often not marked, values filed in µg/mL are converted to µM
In assay [1] the test system is Salmonella enterica subsp. enterica serovar Enteritidis.
Assay [2] concerns Shewanella putrefaciens IAM 1509.
Assay [3] has as its system Aeromonas salmonicida NCIMB 1102.
In assay [4] the test system is Vibrio parahaemolyticus Vp+1.
In assay [5] the test system is Vibrio anguillarum NCIMB 829.
Assay [6] deals with Bacillus subtilis IAM 1026.
The subject of assay [7] is Escherichia coli JCM 1649.
Assay [8] concerns Photobacterium damselae subsp. piscicida Sp 9587.
Assay [9] concerns Staphylococcus aureus IAM 1011.
Assay [10] has as its system Candida albicans F7-39/IDE99.
Assay [11] relates to Micrococcus luteus CCM 144.
In assay [12] the test system is Salmonella typhimurium C610.
The test system of assay [13] is Salmonella typhimurium C587.
The test system of assay [14] is Pseudomonas aeruginosa H187.
In assay [15] the test system is Pseudomonas aeruginosa H188.
Assay [16] relates to Staphylococcus aureus ATCC 25923.
The test system of assay [17] is Corynebacterium xerosis C875.
Assay [18] relates to Staphylococcus epidermidis C621.
Assay [19] concerns Staphylococcus aureus SAP 0017.
Assay [20] deals with Enterococcus faecalis C625.
Assay [21] has as its system Pseudomonas aeruginosa ATCC 27853.
The subject of assay [22] is Staphylococcus epidermidis ATCC 12228.
Assay [23] deals with Escherichia coli ATCC 25922.

`C[C@@H](O)[C@H](NC(=O)[C@H](CCCCN)NC(=O)[C@@H](NC(=O)[C@@H](NC(=O)[C@@H]1CCCN1C(=O)[C@@H](N)Cc1ccccc1)[C@@H](C)O)[C@@H](C)O)C(=O)N[C@@H](Cc1ccc(O)cc1)C(=O)N[C@@H](Cc1ccccc1)C(=O)N1CCC[C@H]1C(=O)N[C@@H](Cc1cnc[nH]1)C(=O)O` [FPTTKTYFPH]: the minimal inhibitory concentration (MIC) in the assay with Micrococcus luteus A270 worked out at 1 µM (≈ 1.24 µg/mL); against Escherichia coli, 9 µM (≈ 11.1 µg/mL); against Listeria innocua it was 1 µM (≈ 1.24 µg/mL); in [1], 9 µM (≈ 11.1 µg/mL).
Consider `CC[C@H](C)[C@H](N)C(=O)NCC(=O)NCC(=O)N[C@H](C(=O)N[C@H](C(=O)N[C@@H](CO)C(=O)N[C@@H](Cc1ccccc1)C(=O)N[C@@H](Cc1ccccc1)C(=O)N[C@@H](CCCCN)C(=O)N[C@@H](CCCN=C(N)N)C(=O)N[C@@H](CC(C)C)C(=O)N[C@@H](Cc1ccccc1)C(=O)O)[C@@H](C)CC)[C@@H](C)CC` [IGGIISFFKRLF], for which the MIC in assay [2] amounted to 2.24 µM (≈ 3.13 µg/mL); against Salmonella typhimurium it was 8.94 µM (≈ 12.5 µg/mL); in assay [3], 17.9 µM (≈ 25 µg/mL); in assay [4], 8.94 µM (≈ 12.5 µg/mL); in [5], 4.47 µM (≈ 6.25 µg/mL); in assay [6] it was 4.47 µM (≈ 6.25 µg/mL). Also, the MIC in assay [7] was determined as 8.94 µM (≈ 12.5 µg/mL); in assay [8], 4.47 µM (≈ 6.25 µg/mL); in [9], 4.47 µM (≈ 6.25 µg/mL).
As for `CC[C@H](C)[C@H](NC(=O)[C@H](C)NC(=O)CNC(=O)[C@H](Cc1c[nH]c2ccccc12)NC(=O)[C@H](CC(N)=O)NC(=O)[C@@H](N)CCCCN)C(=O)N[C@@H](CC(C)C)C(=O)N[C@@H](CCCCN)C(=O)N[C@@H](Cc1cnc[nH]1)C(=O)N[C@H](C(=O)N[C@H](C(=O)N[C@@H](CCCCN)C(N)=O)[C@@H](C)CC)[C@@H](C)CC` [KNWGAILKHIIK], the minimum inhibitory concentration (MIC) in assay [10] stood at 9.8 µM (≈ 13.9 µg/mL); against Escherichia coli B, 17.1 µM (≈ 24.3 µg/mL); in assay [11], 9 µM (≈ 12.8 µg/mL); in the assay with Pseudomonas aeruginosa, 83.3 µM (≈ 118 µg/mL); against Staphylococcus aureus it was 100 µM (≈ 142 µg/mL); with Bacillus subtilis 168 it was 5.8 µM (≈ 8.23 µg/mL).
Take `CC[C@H](C)[C@H](NC(=O)[C@H](C)NC(=O)[C@H](CCCCN)NC(=O)[C@H](CC(C)C)NC(=O)[C@H](C)NC(=O)[C@@H](NC(=O)[C@H](Cc1cnc[nH]1)NC(=O)[C@H](CC(C)C)NC(=O)[C@@H](NC(=O)[C@@H](NC(=O)[C@H](CCCCN)NC(=O)[C@@H](NC(=O)[C@H](C)NC(=O)[C@H](CCCCN)NC(=O)[C@H](CCCCN)NC(=O)[C@H](Cc1ccccc1)NC(=O)[C@@H](NC(=O)[C@H](CCCCN)NC(=O)[C@H](CC(C)C)NC(=O)[C@H](Cc1ccccc1)NC(=O)[C@H](CO)NC(=O)[C@H](CCCCN)NC(=O)[C@H](Cc1c[nH]c2ccccc12)NC(=O)[C@H](CCCCN)NC(C)=O)[C@@H](C)O)C(C)C)[C@@H](C)O)C(C)C)[C@@H](C)O)C(=O)N[C@@H](CO)C(=O)N[C@@H](CO)C(N)=O` [KWKSFLKTFKKAVKTVLHTALKAISS]: the MIC in assay [12] came to 2.7 µM (≈ 8.11 µg/mL); in assay [13] it was 8.58 µM (≈ 25.8 µg/mL); in the assay on Bacillus subtilis C971, 1.08 µM (≈ 3.24 µg/mL); in [14], 8.58 µM (≈ 25.8 µg/mL); in assay [15], 10.8 µM (≈ 32.4 µg/mL); in assay [16], 10.8 µM (≈ 32.4 µg/mL). The MIC worked out at 1.35 µM (≈ 4.06 µg/mL) in [17]; 1.35 µM (≈ 4.06 µg/mL) against Escherichia coli DC2; 3.41 µM (≈ 10.2 µg/mL) in the assay with Escherichia coli UB1005; 2.16 µM (≈ 6.49 µg/mL) in [18]; 5.4 µM (≈ 16.2 µg/mL) in assay [19]; 10.8 µM (≈ 32.4 µg/mL) in assay [20].
Take `CC[C@H](C)[C@H](NC(=O)[C@H](C)NC(=O)[C@H](CCCCN)NC(=O)[C@H](CC(C)C)NC(=O)[C@H](C)NC(=O)[C@@H](NC(=O)[C@H](Cc1cnc[nH]1)NC(=O)[C@H](CC(C)C)NC(=O)[C@@H](NC(=O)[C@@H](NC(=O)[C@H](CCCCN)NC(=O)[C@H](CC(C)C)NC(=O)[C@H](C)NC(=O)[C@H](CO)NC(=O)[C@H](CCCCN)NC(=O)[C@H](Cc1ccccc1)NC(=O)[C@@H](NC(=O)[C@H](CCCCN)NC(=O)[C@H](CC(C)C)NC(=O)[C@H](Cc1ccccc1)NC(=O)[C@H](CO)NC(=O)[C@H](CCCCN)NC(=O)[C@H](Cc1c[nH]c2ccccc12)NC(=O)[C@H](CCCCN)NC(C)=O)[C@@H](C)O)[C@@H](C)O)C(C)C)[C@@H](C)O)C(=O)N[C@@H](CO)C(=O)N[C@@H](CO)C(N)=O` [KWKSFLKTFKSALKTVLHTALKAISS]: the MIC in assay [21] came out at 8 µM (≈ 23.8 µg/mL); in assay [12] it was 3.44 µM (≈ 10.2 µg/mL); in assay [13] it was 10.9 µM (≈ 32.4 µg/mL); against Bacillus subtilis C971, 1.09 µM (≈ 3.24 µg/mL); in assay [22], 2 µM (≈ 5.95 µg/mL); in [14], 4.33 µM (≈ 12.9 µg/mL). In addition, the MIC in [15] was 10.9 µM (≈ 32.4 µg/mL); in assay [16] it was 10.9 µM and 8 µM; in assay [23] it was 4 µM (≈ 11.9 µg/mL); in [17], 0.852 µM (≈ 2.53 µg/mL); in the assay with Escherichia coli DC2 it was 1.7 µM (≈ 5.07 µg/mL); with Escherichia coli UB1005, 2.18 µM (≈ 6.49 µg/mL). Also, the MIC stood at 2.73 µM (≈ 8.11 µg/mL) in [18], 8.66 µM (≈ 25.8 µg/mL) in assay [19] and 10.9 µM (≈ 32.4 µg/mL) in assay [20].
In the case of `CC(C)C[C@H](NC(=O)[C@@H](N)C(C)C)C(=O)N[C@@H](CO)C(=O)N[C@@H](C)C(=O)N[C@@H](C)C(=O)N[C@@H](CC(=O)O)C(=O)N[C@@H](CCCCN)C(=O)NCC(=O)N[C@@H](CC(N)=O)C(=O)N[C@H](C(=O)N[C@@H](CCCCN)C(=O)N[C@@H](C)C(=O)N[C@@H](C)C(=O)N[C@@H](Cc1c[nH]c2ccccc12)C(=O)NCC(=O)N[C@@H](CCCCN)C(=O)N[C@H](C(=O)NCC(=O)NCC(=O)N[C@@H](Cc1cnc[nH]1)C(=O)N[C@@H](C)C(=O)N[C@@H](C)C(=O)N[C@@H](CCC(=O)O)C(=O)N[C@@H](Cc1ccc(O)cc1)C(=O)NCC(=O)N[C@@H](C)C(=O)N[C@@H](CCC(=O)O)C(=O)O)C(C)C)C(C)C` [VLSAADKGNVKAAWGKVGGHAAEYGAE], the MIC is no less than 38 µM in the assay on Micrococcus luteus A270, 54 µM (≈ 143 µg/mL) in the assay with Escherichia coli, 27 µM (≈ 71.7 µg/mL) against Listeria innocua and no less than 38 µM in assay [1].
